According to publication PMC7037548, “Microbial Transformation of Prenylquercetins by Mucor hiemalis” (Molecules, 2020):
Values after ≈ are worked out from the molar mass of the structure shown.

Assay: Water solubility test
Type: physicochemical
Settings: for solubility at 10 min: water, thermodynamic from solid
Description: The solubility of prenylquercetins and their glucosides were determined based on the previously reported method with some modifications. Briefly, each compound (4 mg) was dissolved in 1 mL of distilled water at room temperature followed by sonication for 10 min and centrifugation at 3600 rpm for 5 min at room temperature. Then the concentrations of the compounds in the supernatant were measured based on their peak areas utilizing calibration curves determined by the HPLC of authentic samples.

Row | solubility at 10 min [µg/mL] | Water solubility, comparison in words | Compound | Solubility (water solubility) (distilled water, room temperature, 4 mg in 1 mL, sonication 10 min, centrifugation, supernatant by HPLC) [µg/mL]
1 | 13 (≈ 35.1 µM) | – | CC(C)=CCc1c(O)cc(O)c2c(=O)c(O)c(-c3ccc(O)c(O)c3)oc12 [Compound 1, 8-prenylquercetin] | –
2 | 63 (≈ 170 µM) | – | CC(C)=CCc1cc(O)c(O)cc1-c1oc2cc(O)cc(O)c2c(=O)c1O [Compound 2, 6′-prenylquercetin] | –
3 | 20 (≈ 45.6 µM) | – | CC(C)=CCc1cc(O)c(O)cc1-c1oc2c(CC=C(C)C)c(O)cc(O)c2c(=O)c1O [Compound 3, 8,6′-diprenylquercetin] | –
4 | 501 (≈ 941 µM) | – | CC(C)=CCc1c(O[C@@H]2O[C@H](CO)[C@@H](O)[C@H](O)[C@H]2O)cc(O)c2c(=O)c(O)c(-c3ccc(O)c(O)c3)oc12 [Compound 4, 8-Prenylquercetin 7-O-β-D-glucopyranoside] | –
5 | 385 (≈ 723 µM) | – | CC(C)=CCc1c(O)cc(O)c2c(=O)c(O[C@@H]3O[C@H](CO)[C@@H](O)[C@H](O)[C@H]3O)c(-c3ccc(O)c(O)c3)oc12 [Compound 5, 8-Prenylquercetin 3-O-β-D-glucopyranoside] | –
6 | 1980 (≈ 3710 µM) | – | CC(C)=CCc1cc(O)c(O)cc1-c1oc2cc(O[C@@H]3O[C@H](CO)[C@@H](O)[C@H](O)[C@H]3O)cc(O)c2c(=O)c1O [Compound 6, 6′-Prenylquercetin 7-O-β-D-glucopyranoside] | –
7 | 3640 (≈ 6830 µM) | – | CC(C)=CCc1cc(O[C@@H]2O[C@H](CO)[C@@H](O)[C@H](O)[C@H]2O)c(O)cc1-c1oc2cc(O)cc(O)c2c(=O)c1O [Compound 7, 6′-Prenylquercetin 4′-O-β-D-glucopyranoside] | –
8 | > 4000 | higher solubility than metabolite 9 | CC(C)=CCc1cc(O[C@@H]2O[C@H](CO)[C@@H](O)[C@H](O)[C@H]2O)c(O)cc1-c1oc2c(CC=C(C)C)c(O[C@@H]3O[C@H](CO)[C@@H](O)[C@H](O)[C@H]3O)cc(O)c2c(=O)c1O [Compound 8, 8,6′-Diprenylquercetin 7,4′-O-β-D-diglucopyranoside] | –
9 | 613 (≈ 1020 µM) | – | CC(C)=CCc1cc(O)c(O)cc1-c1oc2c(CC=C(C)C)c(O[C@@H]3O[C@H](CO)[C@@H](O)[C@H](O)[C@H]3O)cc(O)c2c(=O)c1O [Compound 9, 8,6′-Diprenylquercetin 7-O-β-D-glucopyranoside] | –
10 | – | – | O=c1c(O)c(-c2ccc(O)c(O)c2)oc2cc(O)cc(O)c12 [Quercetin] | 36 (≈ 119 µM)
